These compounds were tested on native tau aggregates (assay: TAU radioligand in vitro displacement assay ([3H]T808, autoradiography on human AD brain sections)). Settings: compound 10 nM, radioligand [3H]T808 10 nM.
Format: binding
Source text: TAU Radioligand-In-Vitro Displacement Assay
This in vitro binding assay assesses the affinity of compounds for native tau aggregates.
AD human brains are purchased from Banner Sun Health Research Institute (Sun City, Ariz., USA). Pathological diagnosis of AD is made according to standard NIA-Reagan Institute criteria based on neuropathological data. The radioligand [^3H]T808 was synthesized in-house ([^3H]-2-[4-(2-Fluoro-ethyl)-piperidin-1-yl]-benzo[4,5]imidazo[1,2-a]pyrimidine, radiochemical purity 99.0%). As a reference cold T808 is used (2-[4-(2-Fluoro-ethyl)-piperidin-1-yl]-benzo[4,5]imidazo[1,2-a]pyrimidine). For the autoradiography FujiFilm Imaging Plates (BAS-IP TR 2025) are exposed to the sections and read with a FujiFilm IP reader (BAS-5000).
Ten μm thick human AD brain sections are generated with a cryostat (Leica CM3050) at −17° C. chamber temperature and −15° C. object temperature. Sections are transferred to Histobond+ microscope slides (Marienfeld Laboratory Glasware). After drying for 3 hours at room temperature the sections are stored at −20° C. The sections are incubated with the radioligand (10 nM) and the respective cold compound (at various concentrations) in 50 mM Tris buffer, pH 7.4 at room temperature for 30 min. After washing 3× 10 min at 4° C. in 50 mM Tris buffer, pH 7.4 and 3 quick dips in H2O dist. at 4° C. the sections are dried at 4° C. for 3 h. The sections are placed in a FujiFilm Cassette (BAS 2025), exposed with an Imaging Plate for five days and afterwards scanned with a resolution of […].
The signal intensity (Dens−PSL/mm2) in the region of interest (ROI) of the autoradiogram is quantified with the software MCID analysis (version 7.0, Imaging Research Inc.). The specific binding (SB) of [^3H]T808 binding in absence or in presence of a compound is calculated by subtracting the non-specific binding signal in the white matter, thus yielding SB[3H]T808 only and SBcompound. The % displacement by the various compounds is calculated as following: % displacement=100−(SBcompound/SB[3H]T808 only)*100. Validation Data
In each experiment cold T808 is used as a positive internal control. Co-incubation of equimolar amounts of hot and cold T808 is expected to reduce specific binding by approximately 50%.

Compared with `Cc1ccc(-c2cn3ccc(N4CCC(F)CC4)cc3n2)cc1` [Example 57, 7-(4-Fluoro-piperidin-1-yl)-2-p-tolyl-imidazo[1,2-a]pyridine], `Cc1ccc(-c2cn3ccc(N4CCC(CCF)CC4)cc3n2)cc1` [Example 87, 7-[4-(2-Fluoro-ethyl)-piperidin-1-yl]-2-p-tolyl-imidazo[1,2-a]pyridine] is lower in “% displacement of [3H]T808 (10 nM) at 10 nM” value (shortened to “% displacement … at 10 nM”): 20% for the first, 5% for the second.

Compared with `CO[C@@H]1CCN(c2ccn3cc(-c4ccccc4)nc3c2)C1` [Example 43, 7-((R)-3-Methoxy-pyrrolidin-1-yl)-2-phenyl-imidazo[1,2-a]pyridine], `FC1CCN(c2ccn3cc(-c4ccccc4)nc3c2)CC1` [Example 5, 7-(4-Fluoropiperidin-1-yl)-2-phenylimidazo[1,2-a]pyridine] is higher in “% displacement … at 10 nM” value: 15% for the first, 21% for the second.

First: FC1CCN(c2ccn3cc(-c4ccc5c(c4)OCO5)nc3c2)CC1 [Example 68, 2-Benzo[1,3]dioxol-5-yl-7-(4-fluoro-piperidin-1-yl)-imidazo[1,2-a]pyridine]
Second: FC1CCN(c2ccn3cc(-c4ccc5c(c4)OCCO5)nc3c2)CC1 [Example 84, 2-(2,3-Dihydro-benzo[1, 4]dioxin-6-yl)-7-(4-fluoro-piperidin-1-yl)-imidazo[1,2-a]pyridine]
The “% displacement … at 10 nM” value of the first is lower: 25% for the first, 26% for the second.

First: CNc1ccn2cc(-c3ccc(CO)cc3)nc2c1 [Example 89, [4-[7-(Methylamino)imidazo[1,2-a]pyridin-2-yl]phenyl]methanol acetic acid adduct]
Second: CNc1ccn2cc(-c3ccc(Br)cc3)nc2c1 [Example 114, N-[2-(4-Bromo-phenyl)-imidazo[1,2-a]pyridin-7-yl]-methyl-amine]
The “% displacement … at 10 nM” value of the first is higher: 54% for the first, 33% for the second.

First: COc1cccc(-c2cn3ccc(NCCF)cc3n2)c1 [Example 76, (2-Fluoro-ethyl)-[2-(3-methoxy-phenyl)-imidazo[1,2-a]pyridin-7-yl]-amine]
Second: CNc1ccn2cc(-c3cccc(SC)c3)nc2c1 [Example 136, N-methyl-2-(3-(methylthio)phenyl)imidazo[1,2-a]pyridin-7-amine]
The “% displacement … at 10 nM” value of the first is higher: 31% for the first, 20% for the second.

Compared with `CNc1ccn2cc(-c3cc4ccccc4o3)nc2c1` [Example 116, N-[2-(Benzofuran-2-yl)-imidazo[1,2-a]pyridin-7-yl]-methyl-amine], `CNc1ccn2cc(-c3ccc(OC)cc3)nc2c1` [Example 74, [2-(4-Methoxy-phenyl)-imidazo[1,2-a]pyridin-7-yl]-methyl-amine] is lower in “% displacement … at 10 nM” value: 47% for the first, 44% for the second.

Going from `CN(C)c1ccn2cc(-c3ccc(OCCF)cc3)nc2c1` [Example 17, {2-[4-(2-Fluoro-ethoxy)-phenyl]-imidazo[1,2-a]pyridin-7-yl}-dimethyl-amine] to `CNc1ccn2cc(-c3ccc(OCCF)cc3)nc2c1` [Example 109, 2-[4-(2-Fluoroethoxy)phenyl]-N-methylimidazo[1,2-a]pyridin-7-amine], the “% displacement … at 10 nM” value rises from 37% to 40%.

Going from `CNc1ccn2cc(-c3cc(OC)cc(OC)c3)nc2c1` [Example 92, 2-(3,5-dimethoxyphenyl)-N-methylimidazo[1,2-a]pyridin-7-amine] to `CN(CCF)c1ccn2cc(-c3ccc4c(c3)OCO4)nc2c1` [Example 39, (2-Benzo[1,3]dioxol-5-yl-imidazo[1,2-a]pyridin-7-yl)-(2-fluoro-ethyl)-methyl-amine], the “% displacement … at 10 nM” value rises from 25% to 42%.

In the case of `FCCOCCOc1ccc(-c2cn3ccc(N4CCC4)cc3n2)cc1` [Example 144, 7-(azetidin-1-yl)-2-(4-(2-(2-fluoroethoxy)ethoxy)phenyl)imidazo[1,2-a]pyridine], the “% displacement … at 10 nM” value is reported as 27%.

Same assay, conditions: compound 1 uM, radioligand [3H]T808 10 nM

In the case of `FC1CCN(c2ccn3cc(-c4ccccc4)nc3c2)CC1` [Example 5, 7-(4-Fluoropiperidin-1-yl)-2-phenylimidazo[1,2-a]pyridine], the “% displacement of [3H]T808 (10 nM) at 1 uM” value is reported as 82%.
